One data set deals with human integrin αvβ5 (Homo sapiens, UniProt P06756+P18084). As to the kind of experiment: Evaluation of integrin binding property (surface plasmon resonance, Biacore 3000, immobilized cyclic peptide). The note with it: SPR, 25° C., HEPES buffer with 5 mM magnesium chloride, integrin 30-1,000 nM; read-out: Performance evaluation: Binding activity (dissociation constant between the cyclic peptide and human integrin αvβ5). Summed up: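 Human αvβ5 (30-1,000 nM) flowed for 10 min at 25 °C over immobilized cyclic peptide in 20 mM HEPES, 150 mM NaCl, 5 mM MgCl2, pH 7.4, followed by 30 min running buffer and 0.5 M EDTA regeneration. Dissociation constant from peptide minus unimmobilized channel, scored into standard grades.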

A short description of data set [1]: Evaluation of molecule stability (alkali treatment, residual rate by LC/MS). In kind it is physicochemical. Particulars: 500 μM peptide aqueous solution plus equivalent of 1 M sodium hydroxide, 15° C., 3 hours, LC/MS peak area. Summed up:
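Stability read as percent of summed LC/MS peak area remaining versus untreated peptide (C18, 45 °C, 10 mM ammonium formate pH 3, ESI positive/negative). Treatment: 500 μM peptide in water plus an equivalent of 1 M NaOH, 15 °C for 3 hours.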

Starred links: 1 amine or outer side, 2 acyl side, 3 side chain; linkers in the order of their positions; H or OH if unused. Positions of bridges follow the written chain, without caps; N, C: chain ends. Non-standard residues stand in square brackets, D forms with d. Residues, ends and D or L forms follow the SMILES beside them. hCys = N[C@@H](CCS)C(=O)O; Dab = NCC[C@H](N)C(=O)O; X2 = O=C(C[*:1])[*:2]

human integrin αvβ5, sequence (P06756 31-1048): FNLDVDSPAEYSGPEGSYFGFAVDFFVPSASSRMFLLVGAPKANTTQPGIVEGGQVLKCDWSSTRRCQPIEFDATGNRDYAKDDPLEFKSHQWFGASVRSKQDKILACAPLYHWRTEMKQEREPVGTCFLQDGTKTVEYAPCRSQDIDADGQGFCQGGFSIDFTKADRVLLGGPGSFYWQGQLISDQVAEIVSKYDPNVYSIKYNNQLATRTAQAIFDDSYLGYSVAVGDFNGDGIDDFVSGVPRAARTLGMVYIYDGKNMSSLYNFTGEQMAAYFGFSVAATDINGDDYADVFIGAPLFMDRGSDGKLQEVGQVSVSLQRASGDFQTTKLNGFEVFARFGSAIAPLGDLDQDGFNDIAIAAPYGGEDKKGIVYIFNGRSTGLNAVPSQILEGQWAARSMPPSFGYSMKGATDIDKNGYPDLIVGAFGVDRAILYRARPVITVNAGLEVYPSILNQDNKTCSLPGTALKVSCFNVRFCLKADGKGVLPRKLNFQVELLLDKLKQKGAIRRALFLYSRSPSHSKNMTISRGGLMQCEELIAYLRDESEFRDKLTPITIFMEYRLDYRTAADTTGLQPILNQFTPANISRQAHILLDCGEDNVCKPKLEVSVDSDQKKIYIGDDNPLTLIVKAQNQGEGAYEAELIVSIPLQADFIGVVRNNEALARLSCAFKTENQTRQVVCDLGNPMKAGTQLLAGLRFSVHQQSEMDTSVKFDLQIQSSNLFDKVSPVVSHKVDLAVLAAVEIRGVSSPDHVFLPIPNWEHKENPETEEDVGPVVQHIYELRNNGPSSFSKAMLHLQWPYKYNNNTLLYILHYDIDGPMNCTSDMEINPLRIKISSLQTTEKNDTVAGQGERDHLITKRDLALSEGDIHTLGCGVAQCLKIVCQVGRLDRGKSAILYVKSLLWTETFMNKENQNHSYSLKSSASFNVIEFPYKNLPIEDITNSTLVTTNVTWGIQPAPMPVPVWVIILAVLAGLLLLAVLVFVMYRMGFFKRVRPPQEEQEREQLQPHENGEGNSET
human integrin αvβ5, sequence (P18084 24-799): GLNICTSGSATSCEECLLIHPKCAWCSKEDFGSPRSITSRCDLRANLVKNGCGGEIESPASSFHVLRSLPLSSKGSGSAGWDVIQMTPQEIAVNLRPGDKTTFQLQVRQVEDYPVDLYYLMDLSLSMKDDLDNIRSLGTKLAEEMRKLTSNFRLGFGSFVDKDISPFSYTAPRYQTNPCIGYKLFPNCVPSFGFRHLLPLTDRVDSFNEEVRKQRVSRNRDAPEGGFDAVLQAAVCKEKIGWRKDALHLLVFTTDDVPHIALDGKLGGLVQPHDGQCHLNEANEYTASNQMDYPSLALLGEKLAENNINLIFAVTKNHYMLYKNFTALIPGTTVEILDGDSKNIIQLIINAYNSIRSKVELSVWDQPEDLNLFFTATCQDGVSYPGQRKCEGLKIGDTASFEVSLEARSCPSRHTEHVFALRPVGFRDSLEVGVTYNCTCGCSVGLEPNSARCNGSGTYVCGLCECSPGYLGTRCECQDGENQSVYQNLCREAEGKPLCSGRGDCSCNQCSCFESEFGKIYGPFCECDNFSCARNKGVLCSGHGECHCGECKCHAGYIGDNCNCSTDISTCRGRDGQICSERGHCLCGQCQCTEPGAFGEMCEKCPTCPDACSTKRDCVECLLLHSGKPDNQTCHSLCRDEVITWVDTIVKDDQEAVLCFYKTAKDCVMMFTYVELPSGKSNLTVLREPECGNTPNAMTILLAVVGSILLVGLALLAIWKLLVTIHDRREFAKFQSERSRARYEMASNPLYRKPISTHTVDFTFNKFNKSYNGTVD

For the compound `CC[C@H](C)[C@@H]1NC(=O)[C@@H](NC(=O)[C@H](CCCCN)NC(=O)[C@H](CCCCN)NC(=O)[C@@H](N)CCCCN)CCSCC(=O)NCC[C@@H](C(=O)N[C@@H](C)C(=O)O)NC(=O)[C@H](CCCNC(=N)N)NC(=O)[C@H](Cc2ccc(O)cc2)NC(=O)[C@H](CC(N)=O)NC(=O)[C@H](CC(=O)O)NC(=O)CNC(=O)[C@H](CCCNC(=N)N)NC(=O)[C@@H]2CCCN2C1=O` [Cyclic peptide 26, KKK-(Hcy)-IPRGDNYR(Dab(acetyl))A] (H-KKK[hCys]IPRGDNYR[Dab]A-OH; linker 4-13 via X2), the Kd on human integrin αvβ5 was 50 to 100 nM. Further, in data set [1], the “Performance evaluation: Stability (residual rate of cyclic peptide after alkali treatment)” value was “A (The residual rate of the cyclic peptide is 70% or more.)”.
Take `CC(C)C[C@@H]1NC(=O)[C@@H](NC(=O)CNC(=O)[C@H](CCCCN)NC(=O)[C@H](CCCCN)NC(=O)[C@@H](N)CCCCN)CCSCC(=O)NCC[C@@H](C(=O)N[C@@H](C)C(=O)O)NC(=O)[C@H](CCCNC(=N)N)NC(=O)[C@H](Cc2ccccc2)NC(=O)[C@H](CC(N)=O)NC(=O)[C@H](CC(=O)O)NC(=O)CNC(=O)[C@H](CCCNC(=N)N)NC(=O)[C@@H]2CCCN2C1=O` [Cyclic peptide 27, KKKG-(Hcy)-LPRGDNFR(Dab(acetyl))A] (H-KKKG[hCys]LPRGDNFR[Dab]A-OH; linker 5-14 via X2): the Kd at human integrin αvβ5 is less than 50 nM. The “Performance evaluation: Stability (residual rate of cyclic peptide after alkali treatment)” value in data set [1] is reported as “A (The residual rate of the cyclic peptide is 70% or more.)”.
Take `CC(C)C[C@@H]1NC(=O)[C@@H](NC(=O)CNC(=O)[C@H](CCCCN)NC(=O)[C@H](CCCCN)NC(=O)[C@@H](N)CCCCN)CCSCC(=O)NCC[C@@H](C(=O)N[C@@H](C)C(=O)O)NC(=O)[C@H](CCCNC(=N)N)NC(=O)[C@H](Cc2ccccc2)NC(=O)[C@H](CO)NC(=O)[C@H](CC(=O)O)NC(=O)CNC(=O)[C@H](CCCNC(=N)N)NC(=O)[C@@H]2CCCN2C1=O` [Cyclic peptide 28, KKKG-(Hcy)-LPRGDSFR(Dab(acetyl))A] (H-KKKG[hCys]LPRGDSFR[Dab]A-OH; linker 5-14 via X2): the Kd on human integrin αvβ5 was 50 to 100 nM. For the same compound, the “Performance evaluation: Stability (residual rate of cyclic peptide after alkali treatment)” value in data set [1] was “A (The residual rate of the cyclic peptide is 70% or more.)”.
On the same counts, the results for `CC(C)[C@@H]1NC(=O)[C@@H](NC(=O)[C@H](C)NC(=O)[C@H](CCCCN)NC(=O)[C@H](CCCCN)NC(=O)[C@@H](N)CCCCN)CCSCC(=O)NCC[C@@H](C(=O)N[C@@H](CC(=O)O)C(=O)O)NC(=O)[C@H](CCCNC(=N)N)NC(=O)[C@H](Cc2ccc(O)cc2)NC(=O)[C@H](CC(N)=O)NC(=O)[C@H](CC(=O)O)NC(=O)CNC(=O)[C@H](CCCNC(=N)N)NC(=O)[C@@H]2CCCN2C1=O` [Cyclic peptide 29, KKKA-(Hcy)-VPRGDNYR(Dab(acetyl))D] (H-KKKA[hCys]VPRGDNYR[Dab]D-OH; linker 5-14 via X2) are 50 to 100 nM and “A (The residual rate of the cyclic peptide is 70% or more.)”.
On the same counts, the results for `CC[C@H](C)[C@@H]1NC(=O)[C@@H](NC(=O)[C@H](C)NC(=O)[C@H](CCCCN)NC(=O)[C@H](CCCCN)NC(=O)[C@@H](N)CCCCN)CCSCC(=O)NCC[C@@H](C(=O)N[C@@H](CC(=O)O)C(=O)O)NC(=O)[C@H](CCCNC(=N)N)NC(=O)[C@H](Cc2ccc(O)cc2)NC(=O)[C@H](CC(N)=O)NC(=O)[C@H](CC(=O)O)NC(=O)CNC(=O)[C@H](CCCNC(=N)N)NC(=O)[C@@H]2CCCN2C1=O` [Cyclic peptide 30, KKKA-(Hcy)-IPRGDNYR(Dab(acetyl))D] (H-KKKA[hCys]IPRGDNYR[Dab]D-OH; linker 5-14 via X2) are less than 50 nM and “A (The residual rate of the cyclic peptide is 70% or more.)”.

These data come from US12673975B2, “Cyclic peptide, cell scaffold material, cell separating material, and medium” (FUJIFILM Corporation, priority 2019, dated 2026).
